From US7285552B2, “Drugs containing triazaspiro[5.5]undecane derivatives as the active ingredient” (Ono Pharmaceuticals Co., Ltd., priority 2001, dated 2007)

Legend:
Type in all cases: cell-based
HIV-189.6 = assay: Inhibiting activity to HIV-1 infection to human PBMC (p24 antigen, EIA), HIV-1 89.6
Method: (§1) Human PBMC (peripheral blood mononuclear cell) was isolated from HIV-negative healthy persons by a Ficol-Hipaque density-gradient centrifugation and incubated for 3 days in the presence of 10 μg/ml PHA (phytohemagglutinin). PHA-stimulated PBMC was suspended in RPMI 1640 containing 10% serum to give a density of 1×10^5 cells/ml and poured into a 96-well microplate. Furthermore, in the presence of a sole test compound in various concentrations or in the co-presence with other anti-HIV inhibitor (such as AZT (zidovudin) or AMD 3100), various HIV-1 cell lines of 50 TCID50 (such as HIV-1LAI, HIV-1NL4-3, HIV-1BaL, HIV-1JRFL, HIV-189.6, HIV-1 HIV-1ERS104pre, HIV-1JSL, HIV-1MM, HIV-1TM and HIV-1MOKW) were exposed. After being incubated for 7 days, the amount of HIV-1p24 antigen on the supernatant liquid of the incubation was measured by an EIA method using Lumipulse F (Fuji Rebio).
(§2) Inhibiting effect to HIV-1 infection to human PBMC was investigated by the joint use of the compound of Example 2(1) with AMD 3100. The compound of Example 2(1) in various concentrations and AMD 3100 were added either solely or combinably and an assay was carried out. Inhibiting effects of both compounds when the p24 amount where the compounds are not added is defined as 100% are shown in terms of % control.

[1] = tested on: Mixed Virus of HIV-1BaL and HIV-1NL4-3 (1:1); assay: Inhibiting activity to HIV-1 infection to human PBMC (p24 antigen, EIA), mixed virus; settings: HIV-1BaL + HIV-1NL4-3 (1:1)
Method: as §1, §2

HIV-1MOKW = assay: Inhibiting activity to HIV-1 infection to human PBMC (p24 antigen, EIA), wild-type HIV-1; settings: Human immunodeficiency virus 1, read-out: IC50, inhibiting effect to infection to human PBMC
Method: as §1
(§3) Inhibiting effect of the compound of Example 2(1) to human PBMC infected by wild-type HIV-1 (HIV-1MOKW) and by multidrug resistant HIV-1 (HIV-1JSL and HIV-1MM) to reverse transcriptase inhibitor and protease inhibitor was investigated.

HIV-1JSL = assay: Inhibiting activity to HIV-1 infection to human PBMC (p24 antigen, EIA), multidrug resistant HIV-1; settings: Human immunodeficiency virus 1, PBMC, read-out: IC50, inhibiting effect to infection to human PBMC
Method: as §1, §3

HIV-1MM = assay: as above; settings: Human immunodeficiency virus 1, PBMC, read-out: IC50, inhibiting effect to infection to human PBMC
Method: as §1, §3

HIV-1BaL = assay: Inhibiting activity to HIV-1 infection to human PBMC (p24 antigen, EIA), HIV-1BaL
Method: as §1
(§4) Inhibiting effect to human PBMC infected by HIV-1 HIV-1BaL by the joint use of the compound of Example 2(1) and saquinavir (SQV) which is an anti-HIV inhibitor was investigated. Inhibiting effects of both compounds when the p24 amount where the compounds are not added is defined as 100% are shown in terms of % control.
as §4, with “75(54)” for “2(1)”, “inhibitor […]” for “inhibitor”

[2] = Example 2(1) 0.1 μM + AMD 3100 0.01 μM
[3] = Example 2(1) 0.1 μM + AMD 3100 0.1 μM
[4] = Example 2(1) 1 μM + AMD 3100 0.01 μM
[5] = Example 2(1) 1 μM + AMD 3100 0.1 μM

CCCCN1C(=O)C(CC2CCCCC2)NC(=O)C12CCN(Cc1ccc3c(c1)OCCO3)CC2.Cl (stereo not shown) [Example 2(1), 9-(1,4-benzodioxan-6-ylmethyl)-1-butyl-3-cyclohexylmethyl-2,5-dioxo-1,4,9-triazaspiro[5.5]undecane.hydrochloride]
p24 amount, % control (no compound = 100%) (HIV-189.6; [2]): 38.0 % control
p24 amount, % control (no compound = 100%) (HIV-189.6; [3]): 6.0 % control
p24 amount, % control (no compound = 100%) (HIV-189.6; Example 2(1) 0.1 μM alone): 72.0 % control
p24 amount, % control (no compound = 100%) (HIV-189.6; [4]): 15.1 % control
p24 amount, % control (no compound = 100%) (HIV-189.6; [5]): 0.7 % control
p24 amount, % control (no compound = 100%) (HIV-189.6; Example 2(1) 1 μM alone): 64.5 % control
p24 amount, % control (no compound = 100%) [1, 2]: 32.1 % control
p24 amount, % control (no compound = 100%) [1, 3]: 17.8 % control
p24 amount, % control (no compound = 100%) ([1]; Example 2(1) 0.1 μM alone): 63.8 % control
p24 amount, % control (no compound = 100%) [1, 4]: 10.5 % control
p24 amount, % control (no compound = 100%) [1, 5]: 1.5 % control
p24 amount, % control (no compound = 100%) ([1]; Example 2(1) 1 μM alone): 52.4 % control
IC50 (HIV-1MOKW): 40 ± 29 nM
IC50 (HIV-1JSL): 64 ± 11 nM
IC50 (HIV-1MM): 48 ± 62 nM
p24 amount, % control (no compound = 100%) (HIV-1BaL; Example 2(1) 0.1 μM + Saquinavir 0.01 μM): 44.3 % control
p24 amount, % control (no compound = 100%) (HIV-1BaL; Example 2(1) 0.1 μM alone): 75.4 % control

CCCCN1C(=O)[C@@H]([C@H](O)C2CCCCC2)NC(=O)C12CCN(Cc1ccc(Oc3ccc(C(=O)O)cc3)cc1)CC2.Cl [Example 75(54), (3R)-1-butyl-2,5-dioxo-3-((1R)-1-hydroxy-1-cyclohexylmethyl)-9-(4-(4-carboxyphenyloxy)phenylmethyl)-1,4,9-triazaspiro[5.5]undecane.hydrochloride]
p24 amount, % control (no compound = 100%) (HIV-1BaL; Example 75(54) 0.2 nM + Saquinavir 1 nM): 66.0 % control
p24 amount, % control (no compound = 100%) (HIV-1BaL; Example 75(54) 0.2 nM + Saquinavir 5 nM): 52.0 % control
p24 amount, % control (no compound = 100%) (HIV-1BaL; Example 75(54) 0.2 nM + Saquinavir 25 nM): 5.7 % control
p24 amount, % control (no compound = 100%) (HIV-1BaL; Example 75(54) 0.2 nM alone): 64.2 % control
p24 amount, % control (no compound = 100%) (HIV-1BaL; Example 75(54) 1 nM + Saquinavir 1 nM): 32.8 % control
p24 amount, % control (no compound = 100%) (HIV-1BaL; Example 75(54) 1 nM + Saquinavir 5 nM): 29.3 % control
p24 amount, % control (no compound = 100%) (HIV-1BaL; Example 75(54) 1 nM + Saquinavir 25 nM): 3.8 % control
p24 amount, % control (no compound = 100%) (HIV-1BaL; Example 75(54) 1 nM alone): 34.2 % control
p24 amount, % control (no compound = 100%) (HIV-1BaL; Example 75(54) 5 nM + Saquinavir 1 nM): 10.8 % control
p24 amount, % control (no compound = 100%) (HIV-1BaL; Example 75(54) 5 nM + Saquinavir 5 nM): 6.1 % control
p24 amount, % control (no compound = 100%) (HIV-1BaL; Example 75(54) 5 nM + Saquinavir 25 nM): 1.6 % control
p24 amount, % control (no compound = 100%) (HIV-1BaL; Example 75(54) 5 nM alone): 10.6 % control

c1cc(CN2CCCNCCNCCCNCC2)ccc1CN1CCCNCCNCCCNCC1 [AMD 3100, reference compound]
p24 amount, % control (no compound = 100%) (HIV-189.6; AMD 3100 0.01 μM alone): 58.3 % control
p24 amount, % control (no compound = 100%) (HIV-189.6; AMD 3100 0.1 μM alone): 6.9 % control
p24 amount, % control (no compound = 100%) ([1]; AMD 3100 0.01 μM alone): 59.1 % control
p24 amount, % control (no compound = 100%) ([1]; AMD 3100 0.1 μM alone): 44.2 % control

CC(C)(C)NC(=O)[C@@H]1C[C@@H]2CCCC[C@@H]2CN1C[C@@H](O)[C@H](Cc1ccccc1)NC(=O)[C@H](CC(N)=O)NC(=O)c1ccc2ccccc2n1 [Saquinavir, saquinavir, reference compound]
p24 amount, % control (no compound = 100%) (HIV-1BaL; Saquinavir 1 nM alone): 78.1 % control
p24 amount, % control (no compound = 100%) (HIV-1BaL; Saquinavir 5 nM alone): 67.7 % control
p24 amount, % control (no compound = 100%) (HIV-1BaL; Saquinavir 0.01 μM alone): 53.8 % control
p24 amount, % control (no compound = 100%) (HIV-1BaL; Saquinavir 25 nM alone): 5.9 % control
